Entries after “also recorded” stand apart in the source; their conditions may differ. Marks after values point to notes of the source that are not given here.
Columns and labels:
Format in all cases: in vivo, mouse
[1] = tested on: Heat shock protein-70; assay: Anti-Hsp-70 immunofluorescence; conditions: for Anti-Hsp-70 (VHLsc), change: ventral horn lumbar spinal cord; for Anti-Hsp-70 (VHLsc), change / Anti-Hsp-70 (VHTsc): SG-fed vs control; for Anti-Hsp-70 (VHTsc): ventral horn thoracic spinal cord
Experimental: Tissue-mounted slides were processed for fluorescence microscopy as follows: Sections were rinsed in coplin jars for 45 minutes at room temperature (RT) in three changes of PBS. Sections were then incubated at RT for 30 minutes in a blocking permeabilization solution made of 5% normal goat serum (NGS), 5% normal rabbit serum (NRS) or 5% BlokHen II (Ayes Labs, Inc., Tigard, Oreg.), 0.05% Triton X-100 and PBS. Subsequently, the blocking solution was tipped off and the slides were rinsed in PBS for 2 minutes. Sections were then incubated overnight in a humidified chamber at 4° C. with a PBS buffered solution that contained 1% NGS or 1% NRS, 1% bovine serum albumin (BSA) and one of the following primary antibodies: (a) rabbit anti-human/mouse ATF-3 (H-90) IgG (polyclonal, 1:500; Santa Cruz Biotechnology, Inc., Santa Cruz, Calif.), (b) anti-activated caspase-3 IgG (monoclonal, 1:250; Chemicon International, Temecula, Calif.) (see FIG. 9), (c) goat antihuman/mouse choline acetyl transferase (ChAT) IgG (polyclonal, 1:100; Chemicon International, Temecula, Calif.) (see FIG. 6), (d) rabbit anti-mouse glial fibrillary acidic protein IgG (polyclonal, 1:250; GeneTex Inc., San Antonio, Tex.) (see FIG. 7), (e) rabbit antihuman/mouse ionized calcium binding adaptor molecule 1 (IBA-1) IgG (polyclonal, 1:500; Wako Pure Chemical Industries, Ltd, Richmond, Va.), (f) mouse anti-human/mouse clone AT8 PHF-1 Tau (monoclonal, 1:200; Pierce Biotechnology Inc., Rockford, Ill.), (g) rabbit anti-human/mouse TAR DNA-binding protein 43 (TDP43) (1:100; ProteinTech Group Inc., Chicago, Ill.) (See FIG. 14), (h) chicken anti-human/mouse β-tubulin 3 (TuJ1 antigen) (polyclonal, 1:100, Ayes Labs, Inc., Tigard, Oreg.), (i) rabbit anti-mouse tyrosine hydroxylase (polyclonal, 1:500, Chemicon International, Temecula, Calif. or polyclonal 1:1000, Affinity BioReagents, Golden, Colo.) (FIG. 10), (j) rabbit anti human/mouse anti-pJunscr73 IgG (polyclonal, 1:200; Chemicon International, Temecula, Calif.), (k) rabbit anti human/mouse anti-HSP-70 IgG (polyclonal, 1:200; Chemicon International, Temecula, Calif.), or (1) rabbit anti human/mouse anti-HSP-25 IgG (polyclonal, 1:100; Chemicon International, Temecula, Calif.). In each experiment, additional slides were incubated with the primary antibody and the secondary antibody omitted or with secondary antibody and primary antibody omitted to test for nonspecific staining. Where appropriate, positive control slides (Alzheimer's disease patient entorhinal cortex, obtained from Drs. Claudia Schwab and Patrick McGeer of the Kinsmen Laboratory, University of British Columbia, Vancouver, BC, Canada) were also processed as above for comparison. Following overnight incubation with the primary antibody, slides were rinsed for 45 minutes at RT in three changes of PBS. Immediately after, the slides were incubated in black chambers that excluded light for 1 hour at RT with the secondary antibody solutions containing 5% NGS or 5% NRS and fluorophore conjugated antibodies: AlexaFluor 568 goat anti-rabbit or rabbit anti-goat IgG (monoclonal, 1:250, absorption: 578 nm, emission 603 nm; Molecular Probes, Eugene, Oreg.), AlexaFluor 546 goat antirabbit or rabbit anti-goat IgG (monoclonal; 1:250, absorption 556 nm, emission 573 nm; Molecular Probes, Eugene, Oreg.) or fluorescein isothiocyanate (FITC) goat anti-rabbit IgG (polyclonal, 1:500, absorption: 494 nm, emission: 518 nm; Sigma, Saint Louis, Mo.). The secondary antibody solution was tipped off and slides were rinsed for 15 minutes in three changes of PBS. Tissue sections were cover-slipped with a 4′6 diamidino-2-phenylindole (DAPI) fluorescent mounting media (Vectashield, absorption: 360 nm, emission: 460 nm, Vector Laboratories, Burlington, ON, Canada) in order to label the nuclei and stored at 4° C. in dark slide boxes to retard bleaching of the fluorescent labels. […]

[2] = tested on: Activating transcription factor-3; assay: Anti-ATF-3 immunofluorescence; conditions: for Anti-ATF-3, change: SG-fed vs control
Experimental: (§1) Tissue-mounted slides were processed for fluorescence microscopy as follows: Sections were rinsed in coplin jars for 45 minutes at room temperature (RT) in three changes of PBS. Sections were then incubated at RT for 30 minutes in a blocking permeabilization solution made of 5% normal goat serum (NGS), 5% normal rabbit serum (NRS) or 5% BlokHen II (Ayes Labs, Inc., Tigard, Oreg.), 0.05% Triton X-100 and PBS. Subsequently, the blocking solution was tipped off and the slides were rinsed in PBS for 2 minutes. […]

[3] = tested on: Phosphorylated Junser73; assay: Anti-pJun immunofluorescence
Experimental: as §1

[4] = tested on: lipid deposits; assay: Oil red O histochemistry of lipid deposits
Experimental: Tissue-mounted slides were processed to evaluate lipid distribution with light microscopy with a protocol adapted from Dr. Roy Ellis (IMVS Division of Pathology, The Queen Elizabeth Hospital, Woodville, South Australia). First, an oil red O stock solution was prepared 2 hours prior to execution of the histochemical procedures. The oil red O stock stain solution was made by mixing oil red O (0.5 g, Sigma-Aldrich, Oakville, ON, Canada) and isopropanol (100 mL, Fisher Scientific, Nepean, ON, Canada) over a 40° C. water bath. Immediately prior to beginning the oil red O histochemical procedures, the oil red O working solution was made by combining 20 mL of distilled water for every 30 mL of oil red O stock stain solution. […] Slide-mounted sections were rinsed in coplin jars for 15 minutes at RT in three changes of PBS. Sections were then rinsed at RT with 60% isopropanol for 5 minutes. The spinal cord sections were then stained with a freshly prepared working solution of oil red O for 20 minutes and then rinsed with 60% isopropanol. Nuclear counterstaining was achieved by staining the sections with haematoxylin (haematoxylin, 7211, Richard Allan Scientific, Kalamazoo, Mich., USA) for 1 minute. Finally, the sections were rinsed with distilled water, dried under a fume hood and cover-slipped with Entellen (Merck, Darmstadt, Germany).
The numbers of immunoreactive somata or inclusions were counted across the ventral horn of the spinal cord, across brain hemispheres, or per dorsal or ventral root with the 40× objective lens in a 600 μm/600 μm area within region perimeters defined by a mouse brain atlas (2001). For each animal, eight cross-sections per spinal cord or brain region were studied. An average of both the right and left ventral horn for each of the eight cross sections was generated giving a final averaged number for each animal in each of the spinal cord areas. For quantification of the level of mitochondrial activity (cytochrome c oxidase labelling) in the lumbar spinal cord or tyrosine hydroxylase immunoreactivity in the substantia nigra pars compacta and striatal sections, images captured using the Motic B5 Professional Series 3.0 microscope (Motic Instruments Inc., Richmond, ON) and analyzed using Motic B5 Professional, Motic Images Advanced 3.0 (Motic Instruments Inc., Richmond, ON) were scanned into a TIFF format file and analysed using the NIH Image J 1.37 software to measure density levels of antibody labelling. Eight to 12 sections from each mouse per region of interest were included.

[5] = SG-fed group over time (35 to 52 wk)

In the case of `CC[C@H](/C=C/[C@@H](C)[C@H]1CC[C@H]2[C@@H]3CC=C4C[C@@H](O[C@@H]5O[C@H](CO)[C@@H](O)[C@H](O)[C@H]5O)CC[C@]4(C)[C@H]3CC[C@]12C)C(C)C` [SG, Stigmasterol β-D-Glucopyranoside], the “Anti-Hsp-70 Lsc over time” value [1, 5] is reported as “Anti-Hsp-70 Lsc (SG-fed group over time) (ns, p = 0.1223)”, the “Anti-Hsp-70 Tsc over time” value [1, 5] is reported as “Anti-Hsp-70 Tsc (SG-fed group over time) (ns, p = 0.8319)” and the “Anti-Hsp-70 (VHLsc), change” value ([1]; Time-point 1 (35 wk)) is reported as “Anti-Hsp-70: +1036%***”. The “Anti-Hsp-70 (VHLsc), change” value ([1]; Time-point 2 (52 wk)) was “Anti-Hsp-70: +425%*”, the “Anti-Hsp-70 (VHTsc)” value ([1]; Time-point 1 (35 wk)) was “Anti-Hsp-70: (ns, p = 0.9697)” and the “Anti-Hsp-70 (VHTsc)” value ([1]; Time-point 2 (52 wk)) was “Anti-Hsp-70: (ns, p = 0.2793)”. For the same compound, the “Anti-ATF-3 immunoreactive cells over time, change” value [2, 5] was “Anti-ATF-3 immunoreactive cells (SG-fed group over time): −48%***”, the “Anti-ATF-3, change” value ([2]; Time-point 1 (35 wk)) was “Anti-ATF-3: +242% ***” and the “Anti-ATF-3, change” value ([2]; Time-point 2 (52 wk)) was “Anti-ATF-3: +101%**”. The “Anti-pJun immunoreactive cells over time” value [3, 5] was “Anti-pJun immunoreactive cells (SG-fed group over time) (ns)”, the “Anti-pJun, change” value ([3]; SG-fed vs control, Time-point 1 (35 wk)) was “Anti-pJun: +199%*” and the Anti-pJun ([3]; SG-fed vs control, Time-point 2 (52 wk)) was “Anti-pJun (ns)”. The “Lipid deposits DR over time” value ([4]; SG-fed over time (35 to 52 wk)) was “did not show time-dependent effects; also recorded: SG-fed DR over time: ns, p = 0.8062”, the “Lipid deposits Lsc over time” value ([4]; SG-fed over time (35 to 52 wk)) was “did not experience an accumulation of deposits over time; also recorded: SG-fed Lsc over time: ns, p = 0.4864” and the “Lipid deposits VR over time” value ([4]; SG-fed over time (35 to 52 wk)) was “did not show time-dependent effects; also recorded: SG-fed VR over time: ns, p = 0.5478”. For the same compound, the “Lipids in dorsal roots” value ([4]; SG-fed vs control, 35 weeks) was “not significant”, the “Lipids in ventral spinal roots, change” value ([4]; SG-fed vs control, 35 weeks) was “+10%” and the “Lipids in dorsal root” value ([4]; SG-fed vs control, 52 weeks) was “statistically significant inter-group differences were not found”. The “Lipids in ventral root” value ([4]; SG-fed vs control, 52 weeks) was “statistically significant inter-group differences were not found” and the “Number and size of lipid deposits” value ([4]; lumbar spinal cord and ventral roots, SG-fed vs control) was “greater”.

From patent US9573972B2, “Nurotoxic sterol glycosides” (priority 2008, dated 2017)
